Measured values as given in publication PMC8635440 (Science Advances, 2021).
Positions of bridges follow the written chain, without caps; N, C: chain ends. Non-standard residues stand in square brackets, D forms with d. Residues, ends and D or L forms follow the SMILES beside them.

How the values were obtained:
retromer holo-complex = retromer holo-complex (Homo sapiens, UniProt O75436+Q96QK1+Q9UBQ0); assay: Differential scanning fluorimetry of retromer; format: binding; details: DSF
Vps29 = Vps29 (Homo sapiens, UniProt Q9UBQ0); assay: Differential scanning fluorimetry of Vps29; format: binding; details: DSF, 20-fold molar excess
[1] = system: TBC1D5 localization in HeLa cells; assay: TBC1D5 endosomal localization after SLO delivery of peptide; format: cell-based, human; details: 2 hours recovery, colocalization with SNX1
TBC1D5TBC into Retromer = TBC1D5TBC into Retromer (Homo sapiens, UniProt O75436+Q96QK1+Q9UBQ0); assay: ITC of TBC1D5TBC into retromer in presence of cyclic peptide; format: binding; details: native 370 nM
[2] = biological target: GST-TBC1D5TBC binding to retromer (Homo sapiens, UniProt O75436+Q96QK1+Q9UBQ0); assay: GST pull-down assay; details: GST pulldown, purified proteins
SNX27PDZ into Retromer = SNX27PDZ into Retromer (Homo sapiens, UniProt O75436+Q96QK1+Q9UBQ0); assay: ITC of SNX27PDZ into retromer in presence of cyclic peptide; format: binding, mouse SNX27; details: 1.3 mM SNX27PDZ into 30 μM retromer + 150 μM peptide; native (DMSO) 13.0 ± 0.5
Solubility observations = format: physicochemical; details: ITC buffer
zfRetromer = zfRetromer (Danio rerio, UniProt A4QP42+Q6TNP8); assay: ITC binding to zebrafish retromer
[3] = biological target: Vps26A-Vps35_1–390 subcomplex (Homo sapiens, UniProt O75436+Q96QK1); assay: Differential scanning fluorimetry of Vps26A-Vps35 1-390; format: binding; details: DSF
ctRetromer = biological target: T1, ctRetromer (Thermochaetoides thermophila, UniProt G0S0E6+G0S709); assay: ITC binding to C. thermophilum retromer; design: species or system Chaetomium thermophilum; details: 25°C
T1 sequence (G0S709 1-869): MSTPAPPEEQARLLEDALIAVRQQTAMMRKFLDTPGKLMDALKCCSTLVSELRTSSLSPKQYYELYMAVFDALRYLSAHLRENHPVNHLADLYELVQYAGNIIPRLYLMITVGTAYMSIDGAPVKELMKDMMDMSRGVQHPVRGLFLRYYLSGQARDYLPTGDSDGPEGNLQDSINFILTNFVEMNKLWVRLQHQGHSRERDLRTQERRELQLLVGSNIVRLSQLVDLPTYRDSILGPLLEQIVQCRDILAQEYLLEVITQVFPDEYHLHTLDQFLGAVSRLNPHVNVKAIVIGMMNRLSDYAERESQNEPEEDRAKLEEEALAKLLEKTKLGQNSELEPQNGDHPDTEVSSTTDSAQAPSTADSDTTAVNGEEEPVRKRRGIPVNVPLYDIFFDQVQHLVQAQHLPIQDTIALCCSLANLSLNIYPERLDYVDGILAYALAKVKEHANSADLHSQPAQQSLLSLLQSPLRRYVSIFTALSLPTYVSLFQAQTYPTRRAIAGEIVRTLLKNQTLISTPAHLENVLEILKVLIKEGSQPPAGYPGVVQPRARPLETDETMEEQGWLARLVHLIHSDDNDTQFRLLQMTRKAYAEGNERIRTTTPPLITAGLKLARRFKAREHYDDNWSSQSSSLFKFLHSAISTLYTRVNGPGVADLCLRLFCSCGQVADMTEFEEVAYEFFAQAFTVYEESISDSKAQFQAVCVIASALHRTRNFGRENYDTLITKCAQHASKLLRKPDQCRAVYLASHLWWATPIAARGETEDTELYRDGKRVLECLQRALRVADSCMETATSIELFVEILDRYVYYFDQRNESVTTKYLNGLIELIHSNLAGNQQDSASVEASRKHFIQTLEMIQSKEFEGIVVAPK
T1 sequence (G0S0E6 1-316): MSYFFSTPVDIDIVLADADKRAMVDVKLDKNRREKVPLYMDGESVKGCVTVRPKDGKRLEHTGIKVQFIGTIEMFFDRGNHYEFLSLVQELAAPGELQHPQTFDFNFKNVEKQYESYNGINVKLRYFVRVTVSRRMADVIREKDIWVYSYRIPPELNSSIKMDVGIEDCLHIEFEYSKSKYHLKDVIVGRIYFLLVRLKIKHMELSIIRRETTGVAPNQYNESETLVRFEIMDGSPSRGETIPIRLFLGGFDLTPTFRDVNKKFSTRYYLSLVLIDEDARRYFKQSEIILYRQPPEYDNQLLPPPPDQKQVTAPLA

Vps26A = Vps26A (Homo sapiens, UniProt O75436); assay: Differential scanning fluorimetry of Vps26A; format: binding; details: DSF, control experiment
[4] = biological target: retromer binding to SNX3–CI-MPR cargo-PtdIns3P liposomes (Homo sapiens, UniProt O75436+Q96QK1+Q9UBQ0); assay: Liposome binding assay; details: Folch I liposomes, 7 μM retromer-SNX3
Vps26BΔC-Vps35_1–390 = Vps26BΔC-Vps35_1–390 (UniProt Q8C0E2+Q96QK1); assay: ITC binding to Vps26B ΔC-term. tail subcomplex; design: species or system mouse Vps26B, human Vps35
[5] = biological target: Vps26A9-298_Vps351-390 (Δ C-term. tail complex) (Homo sapiens, UniProt O75436+Q96QK1); assay: ITC binding to Vps26A ΔC-term. tail subcomplex; details: 25°C, Vps26A C-terminal tail removed
[6] = biological target: Rab7a with TBC1D5TBC and retromer (Homo sapiens, UniProt O75436+Q96QK1+Q9UBQ0); assay: GTPase activity assay; format: biochemical; details: 10 μM Rab7a, 3 μM TBC1D5TBC, 6 μM retromer, 60 μM peptide
[7] = biological target: retromer and its ligands in HeLa cell lysates (Homo sapiens, UniProt O75436+Q96QK1+Q9UBQ0); assay: Biotinylated cyclic peptide pull-down from HeLa cell lysates; format: binding; details: streptavidin agarose, Western blotting
[8] = biological target: human retromer complex (Vps35-[change]-Vps29) (human) (UniProt Q96QK1); assay: ITC

Question: Which results are given for `N=C(N)SCc1ccc(CSC(=N)N)s1` [R55]?
Answer: impact on thermal stability (Tm) of retromer (retromer holo-complex; 3 µM Retromer, 60 μM compound or 30-fold molar excess of peptide): unable to detect significant improvement; impact on Retromer stability (retromer holo-complex; 1 mM (>300-fold molar excess)): little impact

Question: Which “effect on melting temperature (Tm) of Vps29” value (“effect on melting temperature” below) (Vps29) does the source give for `CC[C@H](C)[C@@H]1NC(=O)[C@H]([C@@H](C)CC)NC(=O)[C@@H](Cc2ccc(O)cc2)NC(=O)CSC[C@@H](C(N)=O)NC(=O)[C@H](CCCNC(=N)N)NC(=O)[C@H](CCCCN)NC(=O)[C@H](CC(C)C)NC(=O)[C@H](CO)NC(=O)[C@H](CO)NC(=O)[C@H](CC(C)C)NC(=O)[C@H](Cc2ccccc2)NC(=O)[C@H](C(C)C)NC(=O)CNC(=O)[C@H](CC(C)C)NC(=O)[C@@H]2CCCN2C(=O)[C@H]([C@@H](C)O)NC(=O)[C@H](CC(=O)O)NC1=O` [RT-D1] ({CH2CO}-[dY]IIDTPLGVFLSSLKRC-NH2; thioether N-17) here?
Answer: increased

Question: Which “effect on melting temperature” value (Vps29) does the source give for `CC[C@H](C)[C@@H]1NC(=O)[C@H](CCCNC(=N)N)NC(=O)[C@@H]2CCCN2C(=O)[C@H](Cc2ccccc2)NC(=O)[C@H]([C@@H](C)O)NC(=O)CNC(=O)[C@H](CC(C)C)NC(=O)[C@@H]2CCCN2C(=O)[C@H]([C@@H](C)O)NC(=O)[C@H](Cc2c[nH]c3ccccc23)NC(=O)[C@H](Cc2ccc(O)cc2)NC(=O)[C@H]([C@@H](C)CC)NC(=O)[C@H]([C@@H](C)O)NC(=O)[C@H]([C@@H](C)O)NC(=O)[C@@H](Cc2ccc(O)cc2)NC(=O)CSC[C@@H](C(N)=O)NC(=O)[C@H](CCCNC(=N)N)NC1=O` [RT-D2] ({CH2CO}-[dY]TTIYWTPLGTFPRIRC-NH2; thioether N-17) here?
Answer: increased

Question: With `CC(C)C[C@@H]1NC(=O)CNC(=O)[C@H](CC(C)C)NC(=O)[C@@H]2CCCN2C(=O)[C@H](CC(=O)O)NC(=O)[C@H](Cc2ccc(O)cc2)NC(=O)CNC(=O)[C@@H](Cc2ccc(O)cc2)NC(=O)CSC[C@@H](C(N)=O)NC(=O)[C@H](C)NC(=O)[C@H](Cc2ccccc2)NC(=O)[C@H](Cc2ccc(O)cc2)NC(=O)[C@H](CCCCN)NC1=O` [RT-D3] ({CH2CO}-[dY]GYDPLGLKYFAC-NH2; thioether N-13) as the compound, how does the “effect on TBC1D5 localization to endosomal structures” value [1] read?
Answer: significant dispersal

Question: And the Kd (TBC1D5TBC into Retromer)?
Answer: undetectable

Question: What about the “effect on GST-TBC1D5TBC interaction with retromer” value [2] of the same compound?
Answer: inhibited

Question: What about the “effect on melting temperature” value (Vps29) of the same compound?
Answer: increased

Question: And the Kd (SNX27PDZ into Retromer)?
Answer: no impact

Question: For `CC(C)C[C@@H]1NC(=O)[C@@H]2CCCN2C(=O)[C@H](CC(=O)O)NC(=O)[C@H](Cc2c[nH]c3ccccc23)NC(=O)CNC(=O)[C@@H](Cc2ccc(O)cc2)NC(=O)CSC[C@@H](C(N)=O)NC(=O)[C@H](C(C)C)NC(=O)[C@H](Cc2ccccc2)NC(=O)[C@H](Cc2ccc(O)cc2)NC(=O)[C@H](CC(N)=O)NC(=O)[C@H](C(C)C)NC(=O)[C@H](Cc2ccc(O)cc2)NC1=O` [RT-D4] ({CH2CO}-[dY]GWDPLYVNYFVC-NH2; thioether N-13), which “solubility for ITC experiments” value (Solubility observations) is on record?
Answer: not sufficiently soluble for ITC experiments

Question: For `CC[C@H](C)[C@@H]1NC(=O)[C@H](Cc2ccc(O)cc2)NC(=O)CSC[C@@H](C(N)=O)NC(=O)CNC(=O)[C@H](Cc2c[nH]cn2)NC(=O)[C@H](CCCNC(=N)N)NC(=O)[C@H](CC(N)=O)NC(=O)[C@@H]2CCCN2C(=O)[C@H](Cc2ccccc2)NC(=O)[C@H]([C@@H](C)O)NC(=O)CNC(=O)[C@H](CC(C)C)NC(=O)[C@@H]2CCCN2C(=O)[C@H]([C@@H](C)O)NC(=O)[C@H](CCCCN)NC1=O` [RT-L1] ({CH2CO}-YIKTPLGTFPNRHGC-NH2; thioether N-15), which “effect on melting temperature” value (Vps29) is on record?
Answer: increased

Question: Which “effect on melting temperature” value (Vps29) does the source give for `CC[C@H](C)[C@@H]1NC(=O)[C@H]([C@@H](C)O)NC(=O)[C@@H]2CCCN2C(=O)[C@H](CC(C)C)NC(=O)[C@H](Cc2ccc(O)cc2)NC(=O)CSC[C@@H](C(N)=O)NC(=O)[C@H](CC(C)C)NC(=O)[C@@H]2CCCN2C(=O)[C@H](Cc2c[nH]cn2)NC(=O)[C@H](Cc2c[nH]c3ccccc23)NC(=O)[C@H](CC(C)C)NC(=O)[C@H](Cc2c[nH]cn2)NC(=O)CNC(=O)[C@H](C(C)C)NC(=O)CNC(=O)[C@H]([C@@H](C)O)NC1=O` [RT-L2] ({CH2CO}-YLPTITGVGHLWHPLC-NH2; thioether N-16) here?
Answer: increased

Question: Which “solubility for ITC experiments” value (Solubility observations) does the source give for `CC(C)C[C@@H]1NC(=O)[C@H](Cc2ccc(O)cc2)NC(=O)CSC[C@@H](C(N)=O)NC(=O)[C@H](CC(N)=O)NC(=O)[C@H](C(C)C)NC(=O)[C@H](Cc2ccc(O)cc2)NC(=O)[C@H](Cc2ccccc2)NC(=O)[C@H](CC(C)C)NC(=O)[C@H](CCCNC(=N)N)NC(=O)[C@H](C(C)C)NC(=O)[C@H](Cc2ccc(O)cc2)NC(=O)[C@H](CC(C)C)NC(=O)[C@@H]2CCCN2C(=O)[C@H](CC(=O)O)NC(=O)[C@H](Cc2ccccc2)NC(=O)[C@H](CCC(=O)O)NC1=O` [RT-L3] ({CH2CO}-YLEFDPLYVRLFYVNC-NH2; thioether N-16) here?
Answer: not sufficiently soluble for ITC experiments

Question: For `CC[C@H](C)[C@@H]1NC(=O)[C@H](Cc2c[nH]c3ccccc23)NC(=O)[C@H](Cc2ccc(O)cc2)NC(=O)CSC[C@@H](C(N)=O)NC(=O)[C@H]([C@@H](C)O)NC(=O)[C@H](CO)NC(=O)[C@H](C(C)C)NC(=O)[C@H](Cc2ccc(O)cc2)NC(=O)[C@H](CCCNC(=N)N)NC(=O)[C@H](Cc2ccc(O)cc2)NC(=O)[C@H]([C@@H](C)O)NC(=O)[C@H]([C@@H](C)O)NC(=O)[C@H](Cc2c[nH]c3ccccc23)NC(=O)[C@H](CO)NC(=O)[C@H](CC(N)=O)NC(=O)[C@H](CO)NC1=O` [RT-L4] ({CH2CO}-YWISNSWTTYRYVSTC-NH2; thioether N-16), which “effect on TBC1D5 localization to endosomal structures” value [1] is on record?
Answer: no discernible effect

Question: What about the Kd (zfRetromer) of the same compound?
Answer: 88 nM

Question: What about the “increase in Tm for the Vps26A-Vps35_1–390 subcomplex” value [3] of the same compound?
Answer: 8 °C

Question: What about the Kd (ctRetromer) of the same compound?
Answer: 5000 nM

Question: And the “effect on thermal stability of Vps26A alone” value (Vps26A)?
Answer: did not affect

Question: What about the “retromer binding to SNX3–CI-MPR cargo-PtdIns3P liposomes” value [4] of the same compound?
Answer: subtle reduction

Question: What about the “effect on melting temperature” value (Vps29) of the same compound?
Answer: did not affect

Question: What about the Kd (Vps26BΔC-Vps35_1–390) of the same compound?
Answer: ~40 nM

Question: And the Kd [5]?
Answer: ~40 nM

Question: What about the “GAP-stimulated GTP hydrolysis of Rab7a” value [6] of the same compound?
Answer: slight improvement

Question: And the “retromer ligands recovered with peptide-bound retromer” value [7]?
Answer: able to interact with TBC1D5, VARP, Fam21, SNX27, and the SNX3–DMT1-II complex

Question: With “TBC domain of human TBC1D5 (from UniProt Q92609 1-795) (domain or fragment)” as the compound, how does the Kd [8] read?
Answer: 370 nM
